In ChEMBL document CHEMBL1138106, “The discovery of a potent and selective lethal factor inhibitor for adjunct therapy of anthrax infection” (Bioorg Med Chem Lett, 2006):

Legend:
Lethal factor [1] = biological target: T1, Lethal factor (Bacillus anthracis, UniProt P15917)
T1 sequence (P15917 whole entry): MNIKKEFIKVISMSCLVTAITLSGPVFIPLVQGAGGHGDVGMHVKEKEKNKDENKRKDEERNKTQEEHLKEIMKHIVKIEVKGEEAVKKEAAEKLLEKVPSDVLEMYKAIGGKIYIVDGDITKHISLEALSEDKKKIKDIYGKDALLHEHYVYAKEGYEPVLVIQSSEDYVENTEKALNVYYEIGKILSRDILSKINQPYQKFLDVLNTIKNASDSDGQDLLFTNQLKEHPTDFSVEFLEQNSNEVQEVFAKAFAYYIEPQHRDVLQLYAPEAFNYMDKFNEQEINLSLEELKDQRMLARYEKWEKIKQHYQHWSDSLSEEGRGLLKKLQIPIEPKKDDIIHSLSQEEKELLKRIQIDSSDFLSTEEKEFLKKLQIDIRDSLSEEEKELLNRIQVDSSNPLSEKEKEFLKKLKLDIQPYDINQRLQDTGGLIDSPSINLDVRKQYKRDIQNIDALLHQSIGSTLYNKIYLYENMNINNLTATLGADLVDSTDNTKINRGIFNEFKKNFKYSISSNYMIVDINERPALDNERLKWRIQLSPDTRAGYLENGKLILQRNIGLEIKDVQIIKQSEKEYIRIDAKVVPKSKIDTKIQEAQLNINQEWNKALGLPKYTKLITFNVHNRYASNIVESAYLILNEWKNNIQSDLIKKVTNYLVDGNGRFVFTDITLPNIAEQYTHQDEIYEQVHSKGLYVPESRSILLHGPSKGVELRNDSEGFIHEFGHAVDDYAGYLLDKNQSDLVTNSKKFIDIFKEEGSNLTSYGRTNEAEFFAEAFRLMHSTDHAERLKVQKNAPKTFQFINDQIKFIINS

Lethal factor [2] = biological target: T1, Lethal factor; remark: listed apart in the source
Lethal factor [3] = biological target: T1, Lethal factor; experiment: Inhibition of LF

Row | SMILES | IC50 (Lethal factor [1]) [µM] | IC50 (Lethal factor [2]) [nM] | IC50 (Lethal factor [3])
1 | Cc1cc(S(=O)(=O)N[C@H](CCCN=C(N)N)C(=O)NO)ccc1F | 1.7 | 40 | 
2 | COc1ccc(S(=O)(=O)N(C)[C@@H](C(=O)NO)C(C)C)cc1 | 17 |  | 
3 | CC(C)[C@@H](NS(=O)(=O)c1ccc(F)cc1)C(=O)NO | 3 | 290 | 
4 | CC(C)[C@@H](NS(=O)(=O)c1ccc(F)cc1CO)C(=O)NO | > 20 | 1310 | 
5 | COc1ccc(S(=O)(=O)N(CCc2ccsc2)[C@@H](C(=O)NO)C(C)C)cc1 |  | 2100 | 
6 | Cc1cc(S(=O)(=O)NC(CCc2c[nH]cn2)C(=O)NO)ccc1F (racemic) | 2.8 | 75 | 
7 | CC(C)[C@@H](NS(=O)(=O)c1ccccc1)C(=O)NO | 7.8 | 1100 | 
8 | COc1ccc(S(=O)(=O)N[C@@H](C(=O)NO)C(C)C)cc1 | 7.3 | 900 | 
9 | CC(C)[C@@H](NS(=O)(=O)c1ccc(Cl)s1)C(=O)NO | 6.45 | 1310 | 
10 | Cc1cc(S(=O)(=O)N[C@@H](C(=O)NO)C(C)C)ccc1O | > 20 | 1640 | 
11 | Cc1cc(S(=O)(=O)N[C@@H](C(=O)NO)C(C)(C)C)ccc1F | 2.3 | 300 | 
12 | Cc1cc(S(=O)(=O)N[C@@H](C(=O)NO)c2ccccc2)ccc1F | 0.37 | 50 | 
13 | Cc1cc(S(=O)(=O)N[C@@H](C(=O)NO)C(C)C)ccc1F | 0.12 |  | 
14 | Cc1cc(S(=O)(=O)N[C@@H](C(=O)NO)C(C)C)ccc1OCc1ccccc1 | > 20 | > 40000 | 
15 | Cc1cc(S(=O)(=O)N[C@@H](C(=O)NO)C2CC2)ccc1F | 0.73 | 120 | 
16 | CC(C)[C@@H](NS(=O)(=O)c1ccc(F)c(CO)c1)C(=O)NO | 3.74 | 600 | 
17 | Cc1cc(S(=O)(=O)N[C@@H](C(=O)NO)C2CCCC2)ccc1F | 0.17 | 64 | 
18 | Cc1cc(S(=O)(=O)N[C@H](C)C(=O)NO)ccc1F | 2.1 | 130 | 
19 | CC(C)[C@@H](NS(=O)(=O)c1ccccc1F)C(=O)NO | > 20 | 6600 | 
20 | Cc1ccc(S(=O)(=O)N[C@@H](C(=O)NO)C(C)C)cc1F | > 20 | 5180 | 
21 | Cc1cccc(S(=O)(=O)N[C@@H](C(=O)NO)C(C)C)c1 | 1.29 | 400 | 
22 | CC(=O)N(Cc1cccnc1)[C@@H](C(=O)NO)C(C)C | > 20 | > 40000 | 
23 | Cc1cc(S(=O)(=O)N[C@H](CCNC(=O)[C@H](C)N)C(=O)NO)ccc1F | 7.47 | 59 | 
24 | Cc1cc(S(=O)(=O)N[C@@H](C(=O)NO)[C@H]2CCOC2)ccc1F | 0.45 | 120 | 
25 | Cc1cc(S(=O)(=O)N[C@H](CCNC(=O)C(C)(C)N)C(=O)NO)ccc1F | 8.7 | 57 | 

Row | SMILES | IC50 (Lethal factor [1]) [µM] | IC50 (Lethal factor [2]) [nM] | IC50 (Lethal factor [3])
26 | COc1ccc(S(=O)(=O)N(CCn2ccnc2)[C@@H](C(=O)NO)C(C)C)cc1 |  | 19100 | 
27 | Cc1ccc(S(=O)(=O)N[C@@H](C(=O)NO)C(C)C)cc1 | 15 | 3000 | 
28 | Cc1cc(S(=O)(=O)N[C@@H](C(=O)NO)C2CCC2)ccc1F | 0.67 | 130 | 
29 | CC(C)[C@@H](NS(=O)(=O)CCc1ccccc1)C(=O)NO | > 20 | 11900 | 
30 | CC[C@@H](C)[C@@H](NS(=O)(=O)c1ccc(F)c(C)c1)C(=O)NO | 0.13 | 67 | 
31 | CC(C)[C@@H](NS(=O)(=O)Cc1cccc(Cl)c1)C(=O)NO | > 20 | 16600 | 
32 | CCCC[C@@H](NS(=O)(=O)c1ccc(F)c(C)c1)C(=O)NO | 0.41 | 70 | 
33 | CC[C@H](C)[C@@H](NS(=O)(=O)c1ccc(F)c(C)c1)C(=O)NO | 0.23 | 67 | 
34 | COc1ccc(S(=O)(=O)N[C@@H]2CCN(O)C2=O)cc1 | > 40 | > 40000 | 
35 | Cc1cc(S(=O)(=O)N[C@@H](C(=O)NO)[C@@H](C)C2CC2)ccc1F | 0.46 | 65 | 
36 | CC(C)[C@@H](NS(=O)(=O)c1cccc(F)c1)C(=O)NO | 12.4 | 2800 | 
37 | CC[C@@H](NS(=O)(=O)c1ccc(F)c(C)c1)C(=O)NO | 0.49 | 100 | 
38 | COc1ccc(S(=O)(=O)N(Cc2cccnc2)[C@@H](C(=O)NO)C(C)C)cc1.Cl [CGS-27023A] | 12 | 1200 | Active
39 | CC(C)[C@@H](NS(=O)(=O)c1ccc(-c2ccccc2)cc1)C(=O)NO | > 20 | > 40000 | 
40 | Cc1cc(S(=O)(=O)N[C@H](CCOCCN)C(=O)NO)ccc1F | 3.5 | 48 | 
41 | Cc1cc(S(=O)(=O)N[C@H](CCNC(=O)CN)C(=O)NO)ccc1F | 7.4 | 37 | 
42 | CC(C)[C@@H](NS(=O)(=O)c1ccc(-c2cnns2)s1)C(=O)NO | 10.2 | 810 | 
43 | CC(C)[C@@H](NS(=O)(=O)c1ccc(C(F)(F)F)cc1)C(=O)NO | > 20 | > 40000 | 
44 | Cc1cc(S(=O)(=O)N[C@H](CC2CC2)C(=O)NO)ccc1F | 0.13 | 51 | 
45 | CC(C)[C@@H](NS(=O)(=O)CC(F)(F)F)C(=O)NO | > 40 | > 40000 | 
46 | CC(C)[C@@H](NS(=O)(=O)c1ccc(F)c2ccccc12)C(=O)NO | 2.76 | 460 | 
47 | CC(C)[C@@H](NS(=O)(=O)c1ccc(Oc2ccccc2)cc1)C(=O)NO | > 20 | > 40000 | 
48 | Cc1cc(S(=O)(=O)N[C@@H](C(=O)NO)C2CCCCC2)ccc1F | 0.19 | 42 | 
49 | COc1ccc(S(=O)(=O)N(Cc2ccncc2)[C@@H](C(=O)NO)C(C)C)cc1 | 9.5 | 3100 | 
50 | CCCCOc1ccc(S(=O)(=O)N[C@@H](C(=O)NO)C(C)C)cc1 | > 20 | > 40000 | 
